From patent publication US8357634B2, “N-alkoxycarboxamides and their use as microbiocides” (Syngenta Crop Protection LLC, priority 2009, dated 2013)

Tests used:
[1] = test system: Monographella nivalis (anamorph: Fusarium nivale, Microdochium nivale); test: Example B-4: Action against Monographella nivalis, fungal growth assay; assay type: cell-based; details: 0.002% active ingredient, PDB broth, 24° C., photometric after 72 hrs
Method: Action Against Monographella nivalis (anamorph: Fusarium nivale, Microdochium nivale; Snow Mould)—Fungal Growth Assay Conidia of the fungus from cryogenic storage were directly mixed into nutrient broth (PDB potato dextrose broth). After placing a DMSO-solution of the test compounds (0.002% active ingredient) into a microtiter plate (96-well format) the nutrient broth containing the fungal spores was added. The test plates were incubated at 24° C. and the inhibition of growth was measured photometrically after 72 hrs (0=no growth inhibition, ratings of 80% to 99% mean good to very good inhibition, 100%=complete inhibition).

[2] = test system: Pyrenophora teres; test: Example B-8: Action against Pyrenophora teres (net blotch) on barley leaf segments; assay type: in vivo; details: foliar, 96 h, 0.02% active ingredient, 4 days after inoculation, read-out: preventive fungicidal activity (inhibition)
Method: Action Against Pyrenophora teres (Net Blotch) on Barley Barley leaf segments were placed on agar in multiwell plates (24-well format) and sprayed with test solutions (0.02% active ingredient). After drying, the leaf disks were inoculated with a spore suspension of the fungus. After appropriate incubation the activity of a compound was assessed 4 days after inoculation as preventive fungicidal activity.

[3] = test system: Puccinia recondita; test: Example B-10: Puccinia recondita / wheat / leaf disc preventative (comparative); assay type: in vivo; details: 8 dpi
Method: Puccinia recondita/Wheat/Leaf Disc Preventative (Brown Rust) Wheat leaf segments were placed on agar in multiwell plates (24-well format) and sprayed with test solutions. After drying, the leaf disks were inoculated with a spore suspension of the fungus. After appropriate incubation the activity of a compound was assessed 8 dpi (days after inoculation) as preventive fungicidal activity.

[4] = test system: Mycosphaerella arachidis (Cercospora arachidicola); test: Example B-15: Mycosphaerella arachidis / liquid culture (comparative); assay type: cell-based; details: 24° C., photometric after 6-7 days, read-out: inhibition of growth
Method: (§1) Mycosphaerella arachidis (Cercospora arachidicola)/Liquid Culture (Early Leaf Spot) Conidia of the fungus from cryogenic storage were directly mixed into nutrient broth (PDB potato dextrose broth). After placing a (DMSO) solution of the test compounds into a microtiter plate (96-well format) the nutrient broth containing the fungal spores was added. The test plates were incubated at 24° C. and the inhibition of growth is measured photometrically after 6-7 days.

[5] = test system: Gaeumannomyces graminis; test: Example B-17: Gaeumannomyces graminis / liquid culture (comparative); assay type: cell-based; details: 24 C, photometric after 2-3 days, read-out: inhibition of growth
Method: as §1, with “Gaeumannomyces graminis/Liquid” for “Mycosphaerella arachidis (Cercospora arachidicola)/Liquid”, “(Take-All of Cereals) Mycelial fragments” for “(Early Leaf Spot) Conidia”, “24 C” for “24° C.”, “was determined” for “is measured”, “2-3” for “6-7”

Q: For `CON(C(=O)c1cn(C)nc1C(F)F)C(C)c1ccc(Cl)cc1Cl` (centres unmarked) [Compound 1.023], which inhibition at 0.002 % strength [1] is on record?
A: Its inhibition at 0.002 % strength is ≥ 50%.

Q: And the inhibition at 0.02 % strength [2]?
A: Its inhibition at 0.02 % strength is ≥ 80%.

Q: And the preventive fungicidal activity ([3]; 20 ppm)?
A: The preventive fungicidal activity was 0.

Q: What about the preventive fungicidal activity ([3]; 60 ppm) of the same compound?
A: The preventive fungicidal activity was 50.

Q: And the preventive fungicidal activity ([3]; 200 ppm)?
A: The preventive fungicidal activity was 70.

Q: And the inhibition at 6 ppm ([4]; 6 ppm)?
A: Its inhibition at 6 ppm is 100%.

Q: What about the inhibition at 20 ppm ([4]; 20 ppm) of the same compound?
A: Its inhibition at 20 ppm is 100%.

Q: And the inhibition at 60 ppm ([4]; 60 ppm)?
A: The inhibition at 60 ppm was 100%.

Q: And the inhibition at 6 ppm ([5]; 6 ppm)?
A: Its inhibition at 6 ppm is 0%.

Q: What about the inhibition at 20 ppm ([5]; 20 ppm) of the same compound?
A: The inhibition at 20 ppm was 0%.

Q: What about the inhibition at 60 ppm ([5]; 60 ppm) of the same compound?
A: The inhibition at 60 ppm was 50%.
